Reference: patent US8822430B2 (Gilead Sciences, Inc., priority 2009, dated 2014)
pEC50: −log10 of the molar value.

Tested on: HCV 1b RLuc cells (dicistronic genotype 1b Con1 replicon)
Test: Renilla luciferase (RLuc)-based HCV replicon reporter assay
Format: cell-based, HCV genotype 1b
Conditions: Hepatitis C virus, 72 h, HCV 1b RLuc replicon, 72 hours; read-out: Activity (antiviral potency [EC50])
Method: Antiviral potency (EC50) was determined using a Renilla luciferase (RLuc)-based HCV replicon reporter assay. To perform the assay, HCV 1b RLuc cells (harboring a dicistronic genotype 1b Con1 replicon that encodes a RLuc reporter), or HCV 1a RLuc cells (harboring a dicistronic genotype 1a H77 replicon that encodes a RLuc reporter), were dispensed into 384-well plates. Compounds were re-suspended in DMSO at a concentration of 10 mM and serially diluted in DMSO using an automated pipeting instrument. Serially diluted compounds were mixed with cell culture media and added to the seeded cells. DMSO was used as a negative (solvent) control, and the protease inhibitor ITMN-191 was included at a concentration >100×EC50 as a positive control. 72 hours later, cells were lysed and Renilla luciferase activity quantified as recommended by the manufacturer (Promega-Madison, Wis.). Non-linear regression was performed to calculate EC50 values.
Biological data (antiviral potency [EC50] was determined using a Renilla luciferase (RLuc)-based HCV replicon reporter assay—HCV 1b RLuc) for representative compounds of the invention is provided in the following table. These compounds can be prepared using procedures similar to those described above.

## COC(=O)N[C@H](C(=O)N1CCC[C@H]1c1ncc(-c2ccc(-c3ccc(-c4cnc([C@@H]5CN(C(=O)OC(C)(C)C)CN5C(=O)[C@@H](NC(=O)OC)C(C)C)[nH]4)cc3)cc2)[nH]1)C(C)C
  pEC50: 11.30

## COC(=O)N[C@H](C(=O)N1CCC[C@H]1C(=O)NCc1ccc(-c2ccc(-c3cnc([C@@H]4CCCN4C(=O)[C@@H](NC(=O)OC)C(C)C)[nH]3)cc2)cc1)C(C)C
  pEC50: 8.85

## COC(=O)N[C@H](C(=O)N1CCC[C@H]1c1ncc(-c2ccc(-c3ccc(-c4cnc([C@@H]5[C@H]6CC[C@H](C6)N5C(=O)[C@@H](NC(=O)OC)C(C)C)[nH]4)cc3)cc2)[nH]1)C(C)C
  pEC50: 11.14

## COC(=O)N[C@H](C(=O)N1CCC[C@H]1c1ncc(-c2ccc3c(c2)Sc2ccc(-c4cnc([C@@H]5CCCN5C(=O)[C@@H](NC(=O)OC)C(C)C)[nH]4)cc2S3)[nH]1)C(C)C
  pEC50: 11.24

## CNC(=O)O[C@H](C(=O)N1CCC[C@H]1c1ncc(-c2ccc(C#Cc3ccc(-c4cnc([C@@H]5CCCN5C(=O)[C@@H](NC(=O)OC)C(C)C)[nH]4)cc3)cc2)[nH]1)C(C)C
  pEC50: 9.90

## COC(=O)N[C@H](C(=O)N1CCC[C@H]1c1ncc(-c2ccc(C#Cc3ccc(-c4cnc([C@@H]5CN(C(=O)OC(C)(C)C)CCN5C(=O)[C@@H](NC(=O)OC)C(C)C)[nH]4)cc3)cc2)[nH]1)C(C)C
  pEC50: 8.33

## COC(=O)N[C@H](C(=O)N1CCC[C@H]1c1ncc(-c2ccc(C#Cc3ccc(-c4cnc([C@@H]5CN(C(=O)OC(C)(C)C)CN5C(=O)[C@@H](NC(=O)OC)C(C)C)[nH]4)cc3)cc2)[nH]1)C(C)C
  pEC50: 9.50

## COC(=O)N[C@H](C(=O)N1CCC[C@H]1c1ncc(-c2ccc(C#CC#Cc3ccc(-c4cnc([C@@H]5CCCN5C(=O)[C@@H](NC(=O)OC)C(C)C)[nH]4)cc3)cc2)[nH]1)C(C)C
  pEC50: 9.42

## COC(=O)N[C@H](C(=O)N1CCC[C@H]1c1ncc(-c2ccc(C#Cc3ccc(-c4cnc([C@@H]5CC(F)(F)CN5C(=O)[C@@H](NC(=O)OC)C(C)C)[nH]4)cc3)cc2)[nH]1)C(C)C
  pEC50: 11.04

## COC(=O)N[C@H](C(=O)N1CCC[C@H]1c1ncc(-c2ccc(C#Cc3ccc(-c4cnc([C@@H]5CNCCN5C(=O)[C@@H](NC(=O)OC)C(C)C)[nH]4)cc3)cc2)[nH]1)C(C)C
  pEC50: 9.70

## COC(=O)N[C@H](C(=O)N1CCC[C@H]1c1ncc(-c2ccc(C#Cc3ccc(-c4cnc([C@@H]5CN(C(C)=O)CN5C(=O)[C@@H](NC(=O)OC)C(C)C)[nH]4)cc3)cc2)[nH]1)C(C)C
  pEC50: 10.39

## COC(=O)N[C@H](C(=O)N1CCC[C@H]1c1ncc(-c2ccc(C#Cc3ccc(-c4cnc([C@@H]5CN(C(=O)OC)CN5C(=O)[C@@H](NC(=O)OC)C(C)C)[nH]4)cc3)cc2)[nH]1)C(C)C
  pEC50: 10.73

## COC(=O)N[C@H](C(=O)N1CCCC[C@H]1c1ncc(-c2ccc(C#Cc3ccc(-c4cnc([C@@H]5CCCN5C(=O)[C@@H](NC(=O)OC)C(C)C)[nH]4)cc3)cc2)[nH]1)C(C)C
  pEC50: 10.65

## COC(=O)N[C@H](C(=O)N1CCC[C@H]1c1ncc(-c2ccc3cc(-c4ccc5nc([C@@H]6CCCN6C(=O)[C@@H](NC(=O)OC)C(C)C)[nH]c5c4)ccc3c2)[nH]1)C(C)C
  pEC50: 11.17

## COC(=O)N[C@H](C(=O)N1CCC[C@H]1c1ncc(-c2ccc3c(c2)C(C)(C)c2cc(-c4cnc([C@@H]5CCCN5C(=O)[C@@H](NC(=O)OC)C(C)C)[nH]4)ccc2-3)[nH]1)C(C)C
  pEC50: 10.99

## COC(=O)N[C@H](C(=O)N1CCC[C@H]1c1ncc(-c2ccc3c(c2)CCc2cc(-c4cnc([C@@H]5[C@H]6CC[C@H](C6)N5C(=O)[C@@H](NC(=O)OC)C(C)C)[nH]4)ccc2-3)[nH]1)C(C)C
  pEC50: 11.06

## COC(=O)N[C@H](C(=O)N1CCC[C@H]1c1ncc(-c2ccc(-c3ccc(-c4ccc5nc([C@@H]6[C@H]7CC[C@H](C7)N6C(=O)[C@@H](NC(=O)OC)C(C)C)[nH]c5c4)cc3)cc2)[nH]1)C(C)C
  pEC50: 11.22

## COC(=O)N[C@H](C(=O)N1[C@@H]2CC[C@@H](C2)[C@H]1c1nc2ccc(-c3ccc(-c4ccc(-c5ccc6nc([C@@H]7[C@H]8CC[C@H](C8)N7C(=O)[C@@H](NC(=O)OC)C(C)C)[nH]c6c5)cc4)cc3)cc2[nH]1)C(C)C
  pEC50: 9.55

## COC(=O)N[C@H](C(=O)N1CCC[C@H]1c1ncc(-c2ccc(C#Cc3ccc(-c4cnc([C@@H]5COCCN5C(=O)[C@@H](NC(=O)OC)C(C)C)[nH]4)cc3)cc2)[nH]1)C(C)C
  pEC50: 10.70

## COC(=O)N[C@H](C(=O)N1CCC[C@H]1c1ncc(-c2ccc3c(c2)sc2cc(-c4cnc([C@@H]5CCCN5C(=O)[C@@H](NC(=O)OC)C(C)C)[nH]4)ccc23)[nH]1)C(C)C
  pEC50: 11.13

## COC(=O)NC(C(=O)N1CCC[C@H]1c1ncc(-c2ccc(C#Cc3ccc(-c4cnc([C@@H]5CCCN5C(=O)[C@@H](NC(=O)OC)C(C)C)[nH]4)cc3)cc2)[nH]1)C(F)(F)F (stereo partly drawn)
  pEC50: < 7.35

## COC(=O)N[C@H](C(=O)N1CCC[C@H]1c1ncc(-c2ccc(C#Cc3ccc(-c4cnc([C@@H]5CN(C(C)=O)CCN5C(=O)[C@@H](NC(=O)OC)C(C)C)[nH]4)cc3)cc2)[nH]1)C(C)C
  pEC50: 9.69

## COC(=O)N[C@H](C(=O)N1CCC[C@H]1c1ncc(-c2ccc(C#Cc3ccc(-c4cnc([C@@H]5CN(C(=O)OC)CCN5C(=O)[C@@H](NC(=O)OC)C(C)C)[nH]4)cc3)cc2)[nH]1)C(C)C
  pEC50: 9.59

## CNC(=O)N1C[C@@H](c2ncc(-c3ccc(C#Cc4ccc(-c5cnc([C@@H]6CCCN6C(=O)[C@@H](NC(=O)OC)C(C)C)[nH]5)cc4)cc3)[nH]2)N(C(=O)[C@@H](NC(=O)OC)C(C)C)C1
  pEC50: 9.61

## COC(=O)N[C@H](C(=O)N1CCC[C@H]1c1ncc(-c2ccc(C#Cc3ccc(-c4cnc([C@@H]5CN(S(=O)(=O)N(C)C)CCN5C(=O)[C@@H](NC(=O)OC)C(C)C)[nH]4)cc3)cc2)[nH]1)C(C)C
  pEC50: 10.28

## CNC(=O)N1CCN(C(=O)[C@@H](NC(=O)OC)C(C)C)[C@H](c2ncc(-c3ccc(C#Cc4ccc(-c5cnc([C@@H]6CCCN6C(=O)[C@@H](NC(=O)OC)C(C)C)[nH]5)cc4)cc3)[nH]2)C1
  pEC50: 8.98

## COC(=O)N[C@H](C(=O)N1CCC[C@H]1c1ncc(-c2ccc3c(c2)S(=O)(=O)c2ccc(-c4cnc([C@@H]5CCCN5C(=O)[C@@H](NC(=O)OC)C(C)C)[nH]4)cc2S3(=O)=O)[nH]1)C(C)C
  pEC50: 7.99

## COC(=O)N[C@H](C(=O)N1CCC[C@H]1c1ncc(-c2ccc(-c3ccc(-c4cnc([C@@H]5CCCN5C(=O)[C@@H](NC(=O)OC)C(C)C)[nH]4)c(C#N)c3)cc2)[nH]1)C(C)C
  pEC50: 10.72

## COC(=O)N[C@H](C(=O)N1CCC[C@H]1c1ncc(-c2ccc3c(c2)oc2cc(-c4cnc([C@@H]5CCCN5C(=O)[C@@H](NC(=O)OC)C(C)C)[nH]4)ccc23)[nH]1)C(C)C
  pEC50: 11.28

## COC(=O)N[C@H](C(=O)N1CCC[C@H]1c1ncc(-c2ccc3c(c2)CCc2cc(-c4ccc5nc([C@@H]6CCCN6C(=O)[C@@H](NC(=O)OC)C(C)C)[nH]c5c4)ccc2-3)[nH]1)C(C)C
  pEC50: 11.43

## COC(=O)N[C@H](C(=O)N1CCC[C@H]1c1ncc(-c2ccc3c(c2)C(F)(F)c2cc(-c4ccc5nc([C@@H]6CCCN6C(=O)[C@@H](NC(=O)OC)C(C)C)[nH]c5c4)ccc2-3)[nH]1)C(C)C
  pEC50: > 11.64

## COC(=O)N[C@H](C(=O)N1CCC[C@H]1c1ncc(-c2ccc(-c3ccc(-c4cnc([C@@H]5CCCN5C(=O)[C@@H](NC(=O)OC)C(C)C)[nH]4)cc3)cc2)[nH]1)C(C)C
  pEC50: 10.14

## COC(=O)N[C@H](C(=O)N1CCC[C@H]1c1ncc(-c2ccc(-c3ccc(-c4cnc([C@@H]5COCCN5C(=O)[C@@H](NC(=O)OC)C(C)C)[nH]4)cc3)cc2)[nH]1)C(C)C
  pEC50: 10.67

## COC(=O)N[C@H](C(=O)N1CCC[C@H]1c1ncc(-c2ccc3c(c2)oc2cc(-c4cnc([C@@H]5[C@H]6CC[C@H](C6)N5C(=O)[C@@H](NC(=O)OC)C(C)C)[nH]4)ccc23)[nH]1)C(C)C
  pEC50: 11.09

## COC(=O)N[C@H](C(=O)N1CCC[C@H]1c1ncc(-c2ccc(-c3ccc(-c4cnc([C@@H]5SCCN5C(=O)[C@@H](NC(=O)OC)C(C)C)[nH]4)cc3)cc2)[nH]1)C(C)C
  pEC50: 10.77

## COC(=O)N[C@H](C(=O)N1CCC[C@H]1c1ncc(-c2ccc3c4ccc(-c5cnc([C@@H]6CCCN6C(=O)[C@@H](NC(=O)OC)C(C)C)[nH]5)cc4[s+]([O-])c3c2)[nH]1)C(C)C
  pEC50: 10.49

## COC(=O)N[C@H](C(=O)N1CCC[C@H]1c1ncc(-c2ccc(C#Cc3ccc(-c4cnc([C@H]5N(C(=O)[C@@H](NC(=O)OC)C(C)C)CSC5(C)C)[nH]4)cc3)cc2)[nH]1)C(C)C
  pEC50: 10.37

## COC(=O)N[C@H](C(=O)N1CCC[C@H]1c1ncc(-c2ccc3c(c2)COc2cc(-c4cnc([C@@H]5CCCN5C(=O)[C@@H](NC(=O)OC)C(C)C)[nH]4)ccc2-3)[nH]1)C(C)C
  pEC50: 10.88

## COC(=O)N[C@@H](C)C(=O)N1CCN(C(=O)OC)C[C@H]1c1ncc(-c2ccc(-c3ccc(-c4cnc([C@@H]5CCCN5C(=O)[C@@H](NC(=O)OC)C(C)C)[nH]4)cc3)cc2)[nH]1
  pEC50: 9.65

## COC(=O)N[C@H](C(=O)N1CCC[C@H]1c1ncc(-c2ccc3c(c2)oc2cc(-c4ccc5nc([C@@H]6CCCN6C(=O)[C@@H](NC(=O)OC)C(C)C)[nH]c5c4)ccc23)[nH]1)C(C)C
  pEC50: 11.12

## COC(=O)N[C@H](C(=O)N[C@@H](CO)c1ncc(-c2ccc(-c3ccc(-c4cnc([C@@H]5CCCN5C(=O)[C@@H](NC(=O)OC)C(C)C)[nH]4)cc3)cc2)[nH]1)C(C)C
  pEC50: 10.11

## COC(=O)N[C@H](C(=O)N1CCC[C@H]1c1ncc(-c2ccc3cc(-c4ccc(-c5cnc([C@@H]6C[C@@H](C#N)CN6C(=O)[C@@H](NC(=O)OC)C(C)C)[nH]5)cc4)ccc3c2)[nH]1)C(C)C
  pEC50: 11.32
